According to PubChem BioAssay AID248 (DTP/NCI, 2004):
Where “and” joins values, the source holds several entries; their conditions need not be identical. Identical values can stand only once. Toxic doses and inconclusive results are not listed. Rule as the data show it: active = T/C of 150% or more; inactive = T/C below 125%.

Tested on: L1210 leukemia ip in BDF1 mice, survival T/C
Assay: NCI In Vivo Anticancer Drug Screen. Data for tumor model L1210 Leukemia (intraperitoneal) in B6D2F1 (BDF1) mice
Conditions: endpoint: mean survival time, higher = longer survival
Method in brief: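 Mice bearing the transplanted tumor received compound or vehicle. Survival of the treated group was divided by that of the vehicle-treated control group to give the ratio.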

[1] = dose: 50.0 mg/kg/injection, schedule: Q01DX009 (ip), vehicle: saline with Tween-80
[2] = dose: 100.0 mg/kg/injection, schedule: Q01DX009 (ip), vehicle: Klucel (hydroxypropylcellulose) (HPC)
[3] = dose: 100.0 mg/kg/injection, schedule: Q01DX009 (ip), vehicle: saline with Tween-80
[4] = dose: 100.0 mg/kg/injection, schedule: Q04DX003 (ip), vehicle: Klucel (hydroxypropylcellulose) (HPC)
[5] = dose: 200.0 mg/kg/injection, schedule: Q04DX003 (ip), vehicle: Klucel (hydroxypropylcellulose) (HPC)
[6] = dose: 400.0 mg/kg/injection, schedule: Q04DX003 (ip), vehicle: Klucel (hydroxypropylcellulose) (HPC)
[7] = dose: 200.0 mg/kg/injection, schedule: Q01DX009 (ip), vehicle: saline with Tween-80
[8] = dose: 100.0 mg/kg/injection, schedule: Q01DX001 (ip), vehicle: saline
[9] = dose: 50.0 mg/kg/injection, schedule: Q01DX001 (ip), vehicle: carboxymethylcellulose (CMC)
[10] = dose: 100.0 mg/kg/injection, schedule: Q01DX001 (ip), vehicle: carboxymethylcellulose (CMC)
[11] = dose: 200.0 mg/kg/injection, schedule: Q01DX001 (ip), vehicle: carboxymethylcellulose (CMC)
[12] = dose: 400.0 mg/kg/injection, schedule: Q01DX001 (ip), vehicle: carboxymethylcellulose (CMC)
[13] = dose: 100.0 mg/kg/injection, schedule: Q04DX003 (ip), vehicle: saline
[14] = dose: 200.0 mg/kg/injection, schedule: Q04DX003 (ip), vehicle: saline
[15] = dose: 400.0 mg/kg/injection, schedule: Q04DX003 (ip), vehicle: saline
[16] = dose: 400.0 mg/kg/injection, schedule: Q01DX009 (ip), vehicle: saline with Tween-80
[17] = dose: 200.0 mg/kg/injection, schedule: Q01DX009 (ip), vehicle: Klucel (hydroxypropylcellulose) (HPC)
[18] = dose: 400.0 mg/kg/injection, schedule: Q01DX009 (ip), vehicle: Klucel (hydroxypropylcellulose) (HPC)

Measured: T/C

C/C(=C\c1ccc2c(c1)OCO2)[N+](=O)[O-]
inactive: dose: 25.0 mg/kg/injection, schedule: Q01DX009 (ip), vehicle: Klucel (hydroxypropylcellulose) (HPC) 97 % of control | dose: 50.0 mg/kg/injection, schedule: Q01DX009 (ip), vehicle: Klucel (hydroxypropylcellulose) (HPC) 89 % of control | [1] 108 % of control | dose: 50.0 mg/kg/injection, schedule: Q04DX003 (ip), vehicle: Klucel (hydroxypropylcellulose) (HPC) 94 % of control | [2] 98 % of control and 87 % of control | [3] 87 % of control | [4] 103 % of control | [5] 100 % of control | [6] 97 % of control

Cc1cc(N(CCCl)CCCl)ccc1C=Nc1ccc(-c2csc(Cc3ccccc3)n2)c(Cl)c1
inactive: dose: 100.0 mg/kg/injection, schedule: Q01DX001 (sc), vehicle: carboxymethylcellulose (CMC) 100 % of control | dose: 200.0 mg/kg/injection, schedule: Q01DX001 (sc), vehicle: carboxymethylcellulose (CMC) 113 % of control | dose: 400.0 mg/kg/injection, schedule: Q01DX001 (sc), vehicle: carboxymethylcellulose (CMC) 100 % of control

O=C(NC1C=CCCC1)c1ccccc1 (stereo unspecified)
inactive: [1] 102 % of control | [3] 96 % of control | [7] 96 % of control

C=COC(=O)NC(C(=O)O)C(C)C (stereo unspecified)
inactive: [8] 96 % of control

O=C1c2cccc(O)c2C(=O)c2c(O)cc(CO)cc21
inactive: [8] 98 % of control | dose: 200.0 mg/kg/injection, schedule: Q01DX001 (ip), vehicle: saline 95 % of control | dose: 400.0 mg/kg/injection, schedule: Q01DX001 (ip), vehicle: saline 95 % of control

CC1(C)N=C(N)N=C(N)N1c1cccc(CNc2ccccc2)c1
inactive: dose: 3.12 mg/kg/injection, schedule: Q01DX001 (ip), vehicle: saline 95 % of control | dose: 6.25 mg/kg/injection, schedule: Q01DX001 (ip), vehicle: saline 103 % of control | dose: 12.5 mg/kg/injection, schedule: Q01DX001 (ip), vehicle: saline 98 % of control | dose: 25.0 mg/kg/injection, schedule: Q01DX001 (ip), vehicle: saline 93 % of control

O=Cc1cccn1Cc1cc2c(cc1[N+](=O)[O-])OCO2
inactive: dose: 25.0 mg/kg/injection, schedule: Q04DX002 (ip), vehicle: Klucel (hydroxypropylcellulose) (HPC) 101 % of control | dose: 50.0 mg/kg/injection, schedule: Q04DX002 (ip), vehicle: Klucel (hydroxypropylcellulose) (HPC) 101 % of control | dose: 100.0 mg/kg/injection, schedule: Q04DX002 (ip), vehicle: Klucel (hydroxypropylcellulose) (HPC) 97 % of control

O=c1[nH]c(-c2ccccc2)ncc1OCc1ccccc1
inactive: [9] 91 % of control | [10] 100 % of control | [11] 96 % of control | [12] 89 % of control

CCOC(/C=C/c1ccccc1)OCC
inactive: [13] 93 % of control | [14] 93 % of control | [15] 98 % of control

CCCCCC(=O)Nc1cccc(OC(=O)NC)c1
inactive: [3] 98 % of control | [7] 97 % of control | [16] 89 % of control

CCOC(=O)CC1C(C)C(C)NC(C)C1C (stereo unspecified)
inactive: dose: 75.0 mg/kg/injection, schedule: Q01DX001 (ip), vehicle: saline 94 % of control | dose: 150.0 mg/kg/injection, schedule: Q01DX001 (ip), vehicle: saline 103 % of control

CCc1ccccc1NC(=O)Nc1ccccc1OC
inactive: [2] 92 % of control | [4] 93 % of control | [17] 94 % of control | [5] 93 % of control | [18] 100 % of control | [6] 90 % of control

Cc1c(Cl)cccc1NC(=O)CCl
inactive: [3] 97 % of control | [7] 103 % of control

O=[N+]([O-])c1cccc(C[n+]2ccccc2C2OCCO2)c1
inactive: dose: 35.0 mg/kg/injection, schedule: Q01DX009 (ip), vehicle: saline 95 % of control

COC(=O)C1CC2OC2C(C)C1C(=O)OC (stereo unspecified)
inactive: [2] 95 % of control | [17] 103 % of control | [18] 105 % of control

COc1ccc(NC(=O)c2cc3ccccc3cc2OC(=O)NC(C)(C)C)cc1
inactive: dose: 100.0 mg/kg/injection, schedule: Q04DX002 (ip), vehicle: saline 103 % of control | dose: 200.0 mg/kg/injection, schedule: Q04DX002 (ip), vehicle: saline 113 % of control | dose: 400.0 mg/kg/injection, schedule: Q04DX002 (ip), vehicle: saline 97 % of control

CCCCCCCCCCCCCCCCS(=O)(=O)N/N=C(/c1cccc(N)c1)N1CCCCC1
inactive: dose: 50.0 mg/kg/injection, schedule: Q04DX003 (ip), vehicle: saline with Tween-80 87 % of control | dose: 100.0 mg/kg/injection, schedule: Q04DX003 (ip), vehicle: saline with Tween-80 90 % of control | dose: 400.0 mg/kg/injection, schedule: Q04DX003 (ip), vehicle: saline with Tween-80 88 % of control

Cc1c2c(cc3c1CCCC3)CCCC2
inactive: dose: 100.0 mg/kg/injection, schedule: Q01DX001 (ip), vehicle: saline with Tween-80 93 % of control | dose: 200.0 mg/kg/injection, schedule: Q01DX001 (ip), vehicle: saline with Tween-80 93 % of control | dose: 400.0 mg/kg/injection, schedule: Q01DX001 (ip), vehicle: saline with Tween-80 92 % of control

ON=C1CSCSC1
inactive: dose: 12.5 mg/kg/injection, schedule: Q04DX002 (ip), vehicle: saline 91 % of control | dose: 25.0 mg/kg/injection, schedule: Q04DX002 (ip), vehicle: saline 94 % of control | dose: 50.0 mg/kg/injection, schedule: Q04DX002 (ip), vehicle: saline 88 % of control

CS(=O)(=O)Oc1ccc2cc(Br)ccc2c1
inactive: [10] 102 % of control | [11] 100 % of control | [12] 107 % of control

COc1ccc(C(O)S(=O)(=O)O)cc1 (stereo unspecified)
inactive: [13] 98 % of control | [14] 100 % of control | [15] 100 % of control

O=C(O)C(=O)Cc1ccc(O)cc1
inactive: [9] 105 % of control | [10] 96 % of control | [11] 91 % of control | [12] 100 % of control

O=S(=O)(Nc1ccc(CCc2ccc(NS(=O)(=O)c3ccccc3)cc2)cc1)c1ccccc1
inactive: [3] 95 % of control | [7] 98 % of control | [16] 98 % of control

CCCCCCCCC1SC1CCCCCCCC(=O)N(C)c1ccccc1 (stereo unspecified)
inactive: [13] 97 % of control | [14] 99 % of control | [15] 94 % of control

Oc1ccc(Cl)cc1Sc1cc(Cl)ccc1O
inactive: dose: 25.0 mg/kg/injection, schedule: Q04DX003 (ip), vehicle: other 103 % of control | dose: 50.0 mg/kg/injection, schedule: Q01DX009 (ip), vehicle: other 95 % of control | dose: 50.0 mg/kg/injection, schedule: Q04DX003 (ip), vehicle: other 97 % of control | dose: 100.0 mg/kg/injection, schedule: Q01DX009 (ip), vehicle: other 111 % of control | dose: 100.0 mg/kg/injection, schedule: Q04DX003 (ip), vehicle: other 92 % of control | [13] 86 % of control | dose: 200.0 mg/kg/injection, schedule: Q01DX009 (ip), vehicle: other 95 % of control

CC(C)C(C(=O)O)c1ccccc1 (stereo unspecified)
inactive: [13] 100 % of control | [14] 112 % of control | [15] 107 % of control

CC(=O)Nc1ccc(NC(=O)Nc2cc(Cl)ccc2C)cc1
inactive: [2] 91 % of control | [17] 93 % of control | [18] 96 % of control
